# According to ChEMBL document CHEMBL1131918, “Quantitative analysis of the kinetics of phospholipase A2 using fast atom bombardment mass spectrometry” (Bioorg Med Chem Lett, 1999):
# How the values were obtained:
# [1] = Catalytic rate constant against phospholipase A2 was determined; assay type: ADME
# phospholipase A2 = assay: Michaelis -Menten constant against phospholipase A2 was determined; assay type: ADME; conditions: phospholipase A2 enzyme
Compound,k cat [1] [µM/min/mg],Km (phospholipase A2) [µM]
CCCCCCCCCC(=O)OCC(COP(=O)([O-])OCC[N+](C)(C)C)OC(=O)CCCCCCCCC (centres undefined),1.06,2400
CCCCCCCCCC(=O)OCC(O)COP(=O)([O-])OCC[N+](C)(C)C (centres undefined),1.03,2300
